Source: ChEMBL document CHEMBL3352542, “Synthesis, biological evaluation and molecular modeling study of 2-(1,3,4-thiadiazolyl-thio and 4-methyl-thiazolyl-thio)-quinazolin-4-ones as a new class of DHFR inhibitors” (Bioorg Med Chem Lett, 2014)
pIC50: −log10 of the molar value. Active and inactive are the calls of the source. The calls are words filed in the database; no cut-off is given here.

Legend:
U-251 = experiment: Growth inhibition of human U251 cells at 10 uM after 48 hrs; assay type: functional
NCI-H226 = experiment: Growth inhibition of human NCI-H226 cells at 10 uM after 48 hrs; assay type: functional
Escherichia coli = experiment: Antimicrobial activity against Escherichia coli assessed as inhibition zone at 200 ug/disk after 24 hrs by disc-diffusion method; assay type: functional; conditions: read-out: IZ
MCF7 = experiment: Growth inhibition of human MCF7 cells at 10 uM after 48 hrs; assay type: functional
Bacillus subtilis = experiment: Antimicrobial activity against Bacillus subtilis assessed as inhibition zone at 200 ug/disk after 24 hrs by disc-diffusion method; assay type: functional; conditions: read-out: IZ
UO-31 = experiment: Growth inhibition of human UO31 cells at 10 uM after 48 hrs; assay type: functional
MDA-MB-435 = experiment: Growth inhibition of human MDA-MB-435 cells at 10 uM after 48 hrs; assay type: functional
Candida albicans = experiment: Antimicrobial activity against Candida albicans assessed as inhibition zone at 200 ug/disk after 24 hrs by disc-diffusion method; assay type: functional; conditions: read-out: IZ
HOP-62 = experiment: Growth inhibition of human HOP62 cells at 10 uM after 48 hrs; assay type: functional
K562 = experiment: Growth inhibition of human K562 cells at 10 uM after 48 hrs; assay type: functional
UACC-62 = experiment: (§1) Growth inhibition of human UACC62 cells at 10 uM after 48 hrs; assay type: functional
Pseudomonas aeruginosa = experiment: Antimicrobial activity against Pseudomonas aeruginosa assessed as inhibition zone at 200 ug/disk after 24 hrs by disc-diffusion method; assay type: functional; conditions: read-out: IZ
Dihydrofolate reductase = biological target: T1, Dihydrofolate reductase (Bos taurus, UniProt P00376); experiment: Inhibition of bovine liver DHFR
T1 sequence (P00376 whole entry): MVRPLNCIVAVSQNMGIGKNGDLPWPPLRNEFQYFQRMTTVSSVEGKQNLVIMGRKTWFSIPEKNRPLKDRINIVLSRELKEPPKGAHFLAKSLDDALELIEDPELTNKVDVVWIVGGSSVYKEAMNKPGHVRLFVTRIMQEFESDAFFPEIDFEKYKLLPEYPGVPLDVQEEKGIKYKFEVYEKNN

Staphylococcus aureus = experiment: Antimicrobial activity against Staphylococcus aureus assessed as inhibition zone at 200 ug/disk after 24 hrs by disc-diffusion method; assay type: functional; conditions: read-out: IZ
A549 = experiment: Growth inhibition of human A549 cells at 10 uM after 48 hrs; assay type: functional
MOLT-4 = experiment: (§2) Growth inhibition of human MOLT4 cells at 10 uM after 48 hrs; assay type: functional
SR = experiment: Growth inhibition of human SR cells at 10 uM after 48 hrs; assay type: functional
SK-MEL-28 = experiment: Growth inhibition of human SK-MEL-28 cells at 10 uM after 48 hrs; assay type: functional, cell-based
MDA-MB-231 = experiment: Growth inhibition of human MDA-MB-231 cells at 10 uM after 48 hrs; assay type: functional
Malme-3M = experiment: Growth inhibition of human MALME-3M cells at 10 uM after 48 hrs; assay type: functional
Hs-578T = experiment: Growth inhibition of human Hs 578T cells at 10 uM after 48 hrs; assay type: functional
NCI-H522 = experiment: Growth inhibition of human NCI-H522 cells at 10 uM after 48 hrs; assay type: functional
A498 = experiment: Growth inhibition of human A498 cells at 10 uM after 48 hrs; assay type: functional
HCT-15 = experiment: (§3) Growth inhibition of human HCT15 cells at 10 uM after 48 hrs; assay type: functional
RXF 393 = experiment: (§4) Growth inhibition of human RXF393 cells at 10 uM after 48 hrs; assay type: functional
HOP-92 = experiment: Growth inhibition of human HOP92 cells at 10 uM after 48 hrs; assay type: functional
786-0 = experiment: Growth inhibition of human 786-0 cells at 10 uM after 48 hrs; assay type: functional
CCRF-CEM = experiment: Growth inhibition of human CCRF-CEM cells at 10 uM after 48 hrs; assay type: functional
MDA-MB-468 = experiment: Growth inhibition of human MDA-MB-468 cells at 10 uM after 48 hrs; assay type: functional
SNB-19 = experiment: Growth inhibition of human SNB19 cells at 10 uM after 48 hrs; assay type: functional
HCT-116 = experiment: (§5) Growth inhibition of human HCT116 cells at 10 uM after 48 hrs; assay type: functional
HL-60(TB) = experiment: Growth inhibition of human HL-60(TB) cells at 10 uM after 48 hrs; assay type: functional
T47D = experiment: Growth inhibition of human T47D cells at 10 uM after 48 hrs; assay type: functional
HT-29 = experiment: Growth inhibition of human HT-29 cells at 10 uM after 48 hrs; assay type: functional
UACC-257 = experiment: Growth inhibition of human UACC257 cells at 10 uM after 48 hrs; assay type: functional
KM12 = experiment: Growth inhibition of human KM12 cells at 10 uM after 48 hrs; assay type: functional
OVCAR-4 = experiment: (§6) Growth inhibition of human OVCAR4 cells at 10 uM after 48 hrs; assay type: functional
PC-3 = experiment: (§7) Growth inhibition of human PC3 cells at 10 uM after 48 hrs; assay type: functional
RPMI-8226 = experiment: (§8) Growth inhibition of human RPMI8226 cells at 10 uM after 48 hrs; assay type: functional
SK-MEL-5 = experiment: Growth inhibition of human SK-MEL-5 cells at 10 uM after 48 hrs; assay type: functional
SF-539 = experiment: Growth inhibition of human SF539 cells at 10 uM after 48 hrs; assay type: functional
CAKI-1 = experiment: Growth inhibition of human CAKI-1 cells at 10 uM after 48 hrs; assay type: functional
SF-295 = experiment: Growth inhibition of human SF295 cells at 10 uM after 48 hrs; assay type: functional
[1] = as §1; assay type: functional; conditions: UACC-62, 48 h, read-out: GI
[2] = as §2; assay type: functional; conditions: MOLT-4, 48 h, read-out: GI
[3] = as §3; assay type: functional; conditions: HCT-15, 48 h, read-out: GI
[4] = as §4; assay type: functional; conditions: RXF 393, 48 h, read-out: GI
[5] = as §5; assay type: functional; conditions: HCT-116, 48 h, read-out: GI
[6] = as §6; assay type: functional; conditions: OVCAR-4, 48 h, read-out: GI
[7] = as §7; assay type: functional; conditions: PC-3, 48 h, read-out: GI
[8] = as §8; assay type: functional; conditions: RPMI-8226, 48 h, read-out: GI

Compound: COc1ccc(-n2c(Sc3nnc(N)s3)nc3ccc(C)cc3c2=O)cc1
- growth inhibition (GI) (U-251): inactive
- growth inhibition (GI) (NCI-H226): inactive
- zone of inhibition at 200 µg/disc (Escherichia coli): 8 mm
- growth inhibition (GI) (MCF7): inactive
- zone of inhibition at 200 µg/disc (Bacillus subtilis): 8 mm
- growth inhibition (GI) (UO-31): inactive
- growth inhibition (GI) (MDA-MB-435): inactive
- zone of inhibition at 200 µg/disc (Candida albicans): 8 mm
- growth inhibition (GI) (HOP-62): inactive
- growth inhibition (GI) (K562): inactive
- growth inhibition (GI) (UACC-62): inactive
- zone of inhibition at 200 µg/disc (Pseudomonas aeruginosa): 8 mm
- pIC50 (Dihydrofolate reductase): 5.52
- zone of inhibition at 200 µg/disc (Staphylococcus aureus): 8 mm
- growth inhibition (GI) (A549): inactive
- growth inhibition (GI) (MOLT-4): inactive
- growth inhibition (GI) (SR): inactive
- growth inhibition (GI) (SK-MEL-28): inactive
- growth inhibition (GI) (MDA-MB-231): inactive
- growth inhibition (GI) (Malme-3M): inactive
- growth inhibition (GI) (Hs-578T): inactive
- growth inhibition (GI) (NCI-H522): inactive
- growth inhibition (GI) (A498): inactive
- growth inhibition (GI) (HCT-15): inactive
- growth inhibition (GI) (RXF 393): inactive
- growth inhibition (GI) (HOP-92): inactive
- growth inhibition (GI) (786-0): inactive
- growth inhibition (GI) (CCRF-CEM): inactive
- growth inhibition (GI) (MDA-MB-468): inactive
- growth inhibition (GI) (SNB-19): inactive
- growth inhibition (GI) (HCT-116): inactive
- growth inhibition (GI) (HL-60(TB)): inactive
- growth inhibition (GI) (T47D): inactive
- growth inhibition (GI) (HT-29): inactive
- growth inhibition (GI) (UACC-257): inactive
- growth inhibition (GI) (KM12): inactive
- growth inhibition (GI) (OVCAR-4): inactive
- growth inhibition (GI) (PC-3): inactive
- growth inhibition (GI) (RPMI-8226): inactive
- growth inhibition (GI) (SK-MEL-5): inactive
- growth inhibition (GI) (SF-539): inactive
- growth inhibition (GI) (CAKI-1): inactive
- growth inhibition (GI) (SF-295): inactive

Compound: COc1cc2nc(Sc3nnc(N)s3)n(-c3ccc(Oc4ccccc4)cc3)c(=O)c2cc1OC
- inhibition of growth at 10 µM (NCI-H226; NCI-H226, 48 h, read-out: GI): 13.4%
- zone of inhibition at 200 µg/disc (Escherichia coli): 8 mm
- inhibition of growth at 10 µM (MCF7; MCF7, 48 h, read-out: GI): 14.8%
- zone of inhibition at 200 µg/disc (Bacillus subtilis): 8 mm
- growth inhibition (GI) (UO-31): inactive
- zone of inhibition at 200 µg/disc (Candida albicans): 8 mm
- inhibition of growth at 10 µM (K562; K562, 48 h, read-out: GI): 22.5%
- inhibition of growth at 10 µM [1]: 22.1%
- zone of inhibition at 200 µg/disc (Pseudomonas aeruginosa): 8 mm
- pIC50 (Dihydrofolate reductase): 6.22
- zone of inhibition at 200 µg/disc (Staphylococcus aureus): 8 mm
- inhibition of growth at 10 µM (A549; A549, 48 h, read-out: GI): 15.2%
- inhibition of growth at 10 µM [2]: 29.6%
- inhibition of growth at 10 µM (SR; read-out: GI): 57.3%
- growth inhibition (GI) (NCI-H522): inactive
- inhibition of growth at 10 µM (A498; A498, 48 h, read-out: GI): 19.3%
- inhibition of growth at 10 µM [3]: 21.4%
- inhibition of growth at 10 µM [4]: 10.7%
- inhibition of growth at 10 µM (CCRF-CEM; read-out: GI): 11.2%
- inhibition of growth at 10 µM (MDA-MB-468; MDA-MB-468, 48 h, read-out: GI): 22.6%
- inhibition of growth at 10 µM [5]: 11.5%
- inhibition of growth at 10 µM (HL-60(TB); HL-60, 48 h, read-out: GI): 11.2%
- inhibition of growth at 10 µM (T47D; read-out: GI): 38.4%
- inhibition of growth at 10 µM (HT-29; HT-29, 48 h, read-out: GI): 17.6%
- inhibition of growth at 10 µM (KM12; KM12, 48 h, read-out: GI): 20.7%
- inhibition of growth at 10 µM [6]: 34.6%
- inhibition of growth at 10 µM [7]: 23.2%
- inhibition of growth at 10 µM [8]: 43.7%
- inhibition of growth at 10 µM (SK-MEL-5; SK-MEL-5, 48 h, read-out: GI): 28.2%
